Where two headings read alike, the source gives them in different places.
Columns and labels:
[1] = system: C57BL-6 mouse spleen cells; assay: Cytokine production in vitro by mouse spleen cells (ELISA); type: cell-based
[2] = system: airway eosinophilia; assay: OVA-induced airway eosinophilia mouse model; type: in vivo, C57B1/6J mice
[3] = 5 μg/ml in PBS, 24 hours, 10^6 cells per well, ELISA
[4] = 5 μg/ml, dissolved in Tween/PBS, PIM-2 control also in 0.02% Tween/PBS, 24 hours

Compound	IFNγ compared with PIM-2 control [1, 3]	IL-12 compared with PIM-2 control [1, 3]	induced production of IL-12 ([1]; in words, summary of Table 4)	induced production of IFNγ ([1]; in words, summary of Table 4)	further results
CCCCCCCCCCCCCCCCCCOP(=O)([O-])OC(COC1OC(CO)C(O)C(O)C1O)COC1OC(CO)C(O)C(O)C1O.[Na+] [Compound 47, Sodium 2-O-(Octadecylphosphoryl)-1,3-bis-O-(α-D-mannopyranosyl)glycerol]	0.03	0.56	induced production	–	IL-4 compared with PIM-2 control [1, 3]: 1.94; IL-10 compared with PIM-2 control [1, 3]: 0.53; induced production of IL-4 ([1]; in words, summary of Table 4): greater levels; induced production of IL-10 ([1]; in words, summary of Table 4): induced production
CCCCCCCCCCCCCCCCCC(=O)OC[C@H](COP(=O)(O)OCCO[C@H]1O[C@H](CO)[C@@H](O)[C@H](O)[C@@H]1O)OC(=O)CCCCCCCCCCCCCCCCC [Compound 7, Triethylammonium 1-O-(1,2-di-O-stearoyl-sn-glycero-3-phosphoryl)-2-O-(α-D-mannopyranosyl)-1,2-ethanediol]	–	–	notable levels	notable levels	IFNγ compared with PIM-2 control [1, 4]: 1.26; IL-12 compared with PIM-2 control [1, 4]: 1.03
CCCCCCCCCCCCCCCCCC(=O)OC[C@H](COP(=O)([O-])OC(COC1OC(CO)C(O)C(O)C1O)COC1OC(CO)C(O)C(O)C1O)OC(=O)CCCCCCCCCCCCCCCCC.[Na+] (stereo partly drawn) [Compound 44, Sodium(1,2-di-O-stearoyl-sn-glycero-3-phoshoryl)-2-[1,3-bis-O-(α-D-galactopyranoside)]glycerol]	–	0.14	a small amount	–	induced production of IL-12 ([1]; in words, summary of Table 4, listed as compound 44): only a low level
L-α-Phosphatidylinositol [reference compound]	0.39	–	–	–	–
CCCCCCCCCCCCCCCCCC(=O)OC[C@H](COP(=O)([O-])OCCO[C@H]1O[C@H](CO[C@H]2O[C@H](CO)[C@@H](O)[C@H](O)[C@@H]2O)[C@@H](O)[C@H](O)[C@@H]1O)OC(=O)CCCCCCCCCCCCCCCCC.[Na+] [Compound 28, Sodium 1-O-(1,2-di-O-stearoyl-sn-glycero-3-phosphoryl)-2-O-[6-O-(α-D-mannopyranosyl)-α-D-mannopyranosyl]-1,2-ethanediol]	–	–	–	–	IFNγ compared with PIM-2 control [1]: 0.62; IL-10 compared with PIM-2 control [1]: 0.36; IL-12 compared with PIM-2 control [1]: 1.15; induced production of IFNγ [1]: notable levels; induced production of IL-12 [1]: notable levels
CCCCCCCCCCCCCCCCCC(=O)OC[C@H](COP(=O)([O-])OCCCOC1OC(CO)C(O)C(O)C1O)OC(=O)CCCCCCCCCCCCCCCCC.[Na+] (stereo partly shown) [Compound 31]	0.75	1.80	notable levels	notable levels	–
CCCCCCCCCCCCCCCCCC(=O)OCC(COP(=O)(O)OC(COC1OC(CO)C(O)C(O)C1O)COC1OC(CO)C(O)C(O)C1O)OC(=O)CCCCCCCCCCCCCCCCC [Compound 15, Triethylammonium 2-O-(1,2-O-distearoyl-sn-glycero-3-phoshoryl)-1,3-bis-O-(α-D-mannopyranosyl)glycerol]	0.98	–	–	levels comparable to PIM-22,6	Mean Eosinophil Count (×10^6), least square means by test molecule type ([2]; BAL 4 days after intranasal OVA challenge, intranasal treatment in 50 μl PBS, mean over dose rates 0, 0.02, 0.2, 2.0): 0.144 ×10^6
CCCCCCCCCCCCCCCCCC(=O)OC[C@H](COP(=O)([O-])O[C@@H]1CCCC[C@H]1OC1OC(CO)C(O)C(O)C1O)OC(=O)CCCCCCCCCCCCCCCCC.[Na+] (stereo partly drawn) [Compound 36, 1-O-(Sodium 1,2-di-O-stearoyl-sn-glycero-3-phosphoryl)-2-O-(-α-D-mannopyranosyl)-cyclohexane-1,2-diol]	0.05	1.59	levels greater than PIM-22,6	–	IL-4 compared with PIM-2 control [1, 3]: 4.29; IL-10 compared with PIM-2 control [1, 3]: 0.60; induced production of IL-4 ([1]; in words, summary of Table 4): levels greater than PIM-22,6
CCCCCCCCCCCCCCCCCC(=O)OCC(CO[C@H]1O[C@H](CO)[C@@H](O)[C@H](O)[C@@H]1O)OC(=O)CCCCCCCCCCCCCCCCC (mixture of isomers) [Compound 17, 1,2-di-O-stearoyl-3-O-α-D-mannopyranosylglycerol]	–	–	–	–	biological activity ([2]; results not shown, stated in Example 2): not biologically active
